Assay results from patent US8163774B2, “Amide-substituted 8-N-benzimidazoles, method for the production thereof, and use of the same as medicaments” (Sanofi-Aventis, priority 2005, dated 2012).
pIC50: −log10 of the molar value.

Biological target: T1, DPP-IV from porcine kidneys (Sus scrofa, UniProt P22411)
T1 construct: DPP-IV from porcine kidneys (Sigma, Munich); purchased Sigma, Munich; host or cells: porcine kidney tissue
Test: Measurement of the DPP-IV activity (fluorimetric, H-Ala-Pro-AFC substrate)
Format: biochemical
Conditions: DPP-IV 1 mU/ml, substrate H-Ala-Pro-AFC 15 μM, Tris/HCl pH 7.4, room temperature
Method: Measurement of the DPP-IV activity:
DPP-IV from porcine kidneys (Sigma, Munich)
H-Ala-Pro-AFC (Bachem, Weil am Rhein)
DPP-IV (1 mU/ml, end concentration)
H-Ala-Pro-AFC (15 μm end concentration)
in Tris/HCl (40 mM, pH 7.4), total volume 0.2 ml
The reaction was performed at room temperature for different periods (typically 10 minutes) and stopped at the end of the reaction by adding 20 μl of ZnCl2 (1 M). The conversion of H-AIa-Pro-AFC was determined fluorimetrically by measuring the emission at 535 nm on excitation at 405 nm. In the case of addition of inhibitors, the buffer volume added was adjusted such that a total volume of the test mixture of 200 μl was maintained.
IC50 values for inhibitors were determined by varying the inhibitor concentrations at the given substrate concentration of 15 μM. Ki and Km values were determined by corresponding variation of substrate and inhibitor concentration as described (Dixon, M. and Webb, E. C. (1979) Enzymes, third edition, pp. 47-206, Academic Press). The values for Km, IC50 and Ki were calculated using a commercially available software package (Leatherbarrow, R. J. (1992) GraFit Version 3.0, Erithacus Software Ltd. Staines, U.K.).

T1 sequence (P22411 whole entry): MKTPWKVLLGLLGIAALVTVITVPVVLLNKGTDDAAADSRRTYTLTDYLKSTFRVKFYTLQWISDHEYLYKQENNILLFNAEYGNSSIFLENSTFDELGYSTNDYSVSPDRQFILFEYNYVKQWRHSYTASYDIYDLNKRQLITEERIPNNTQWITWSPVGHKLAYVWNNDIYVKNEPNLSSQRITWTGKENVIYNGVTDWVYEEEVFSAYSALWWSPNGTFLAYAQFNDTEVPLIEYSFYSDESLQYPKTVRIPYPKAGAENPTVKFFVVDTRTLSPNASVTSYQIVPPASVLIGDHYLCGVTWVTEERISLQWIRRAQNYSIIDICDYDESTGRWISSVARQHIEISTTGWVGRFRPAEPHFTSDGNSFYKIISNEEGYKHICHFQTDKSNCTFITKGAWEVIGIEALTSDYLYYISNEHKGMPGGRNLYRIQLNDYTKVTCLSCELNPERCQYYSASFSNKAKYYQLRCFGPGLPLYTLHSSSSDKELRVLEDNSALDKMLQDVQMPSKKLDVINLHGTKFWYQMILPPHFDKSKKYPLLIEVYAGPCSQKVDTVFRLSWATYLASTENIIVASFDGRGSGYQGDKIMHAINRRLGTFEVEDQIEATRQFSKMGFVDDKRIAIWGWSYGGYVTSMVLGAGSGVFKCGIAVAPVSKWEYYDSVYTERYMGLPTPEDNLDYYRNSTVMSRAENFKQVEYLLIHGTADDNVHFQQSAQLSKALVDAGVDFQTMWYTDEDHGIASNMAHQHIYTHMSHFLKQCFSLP

Row | pIC50 | SMILES
1 | 6.00 | N[C@@H]1CCCN(c2nc3ccc(C(=O)NCc4cccc(C(F)(F)F)c4)cc3n2Cc2ccc(F)cc2)C1 [Example 2]
2 | 5.37 | N[C@@H]1CCCN(c2nc3cc(C(=O)NCc4ccc(Cl)cc4)ccc3n2Cc2ccc(F)cc2)C1 [Example 6]
3 | 5.60 | N[C@@H]1CCCN(c2nc3ccc(C(=O)NCc4cccnc4)cc3n2Cc2ccc(F)cc2)C1 [Example 5]
4 | 5.74 | CC(C)=CCn1c(N2CCC[C@@H](N)C2)nc2ccc(C(=O)Nc3ccc(F)cc3)cc21 [Example 11]
